Data on 16 compounds can be found in patent US20260356830A1, “COMPOUNDS FOR MODULATING RET PROTEIN” (Bristol-Myers Squibb Company, priority 2022, published 2026).

This assay addresses T1, CCDC6-RET (Homo sapiens, UniProt P07949+Q16204+Q96SW2).
T1 construct: CCDC6 (natural N-terminal fusion partner, UniProt Q16204); endogenous in cells; host or cells: TPC-1 (parental, papillary thyroid carcinoma)
The experiment in a line: Cellular RET degradation, AlphaLISA, TPC-1 cell line. The class given is cell-based. The following applies: for Dmax: TPC1, human, 24 h, read-out: Cell Density TPC-1/CCDC6-RET Ymax %; for DC50: read-out: Cell Density TPC-1/CCDC6-RET DC50, half-maximal degradation concentration, TPC-1 (CCDC6-RET), 24 hrs. A digest of the protocol:
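TPC-1 papillary thyroid carcinoma cells (endogenous CCDC6-RET) in DMEM with 2% FBS, compound-treated 24 h at 37 °C. RET in lysates quantified by AlphaLISA luminescence, normalized to media-only and DMSO wells; DC50 and maximal degradation from 4-parameter logistic fit.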
(In general: Bead proximity is the source of the signal in Alpha formats.)

T1 sequence (Q16204+P07949 fused): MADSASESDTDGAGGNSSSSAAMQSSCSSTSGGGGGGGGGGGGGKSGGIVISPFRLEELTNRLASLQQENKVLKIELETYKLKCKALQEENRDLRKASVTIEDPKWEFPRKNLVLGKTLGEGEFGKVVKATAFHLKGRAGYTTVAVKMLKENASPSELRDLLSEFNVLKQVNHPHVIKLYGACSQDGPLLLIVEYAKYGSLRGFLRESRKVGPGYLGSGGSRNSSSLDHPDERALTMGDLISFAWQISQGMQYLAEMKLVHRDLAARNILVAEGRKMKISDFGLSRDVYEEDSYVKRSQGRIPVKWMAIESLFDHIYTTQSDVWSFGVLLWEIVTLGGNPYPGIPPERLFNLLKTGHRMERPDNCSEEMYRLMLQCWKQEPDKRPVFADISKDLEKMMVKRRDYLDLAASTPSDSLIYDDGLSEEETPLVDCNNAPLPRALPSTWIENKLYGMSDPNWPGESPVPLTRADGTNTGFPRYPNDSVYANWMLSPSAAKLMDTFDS
T1 sequence (Q96SW2 whole entry, the tested form may be a part): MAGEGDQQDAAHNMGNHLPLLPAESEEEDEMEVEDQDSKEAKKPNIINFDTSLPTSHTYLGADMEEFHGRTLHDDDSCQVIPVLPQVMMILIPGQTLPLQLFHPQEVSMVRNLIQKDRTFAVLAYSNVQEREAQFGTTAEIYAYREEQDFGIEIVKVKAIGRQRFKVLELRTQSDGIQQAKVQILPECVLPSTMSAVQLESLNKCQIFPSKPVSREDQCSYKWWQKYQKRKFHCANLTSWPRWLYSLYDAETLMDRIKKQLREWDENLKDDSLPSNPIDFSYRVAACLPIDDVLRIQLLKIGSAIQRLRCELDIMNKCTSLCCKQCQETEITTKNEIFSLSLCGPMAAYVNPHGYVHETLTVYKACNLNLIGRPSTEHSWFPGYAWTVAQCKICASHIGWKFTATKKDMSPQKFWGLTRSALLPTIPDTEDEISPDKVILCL
T1 sequence (Q16531 whole entry partner, the tested form may be a part): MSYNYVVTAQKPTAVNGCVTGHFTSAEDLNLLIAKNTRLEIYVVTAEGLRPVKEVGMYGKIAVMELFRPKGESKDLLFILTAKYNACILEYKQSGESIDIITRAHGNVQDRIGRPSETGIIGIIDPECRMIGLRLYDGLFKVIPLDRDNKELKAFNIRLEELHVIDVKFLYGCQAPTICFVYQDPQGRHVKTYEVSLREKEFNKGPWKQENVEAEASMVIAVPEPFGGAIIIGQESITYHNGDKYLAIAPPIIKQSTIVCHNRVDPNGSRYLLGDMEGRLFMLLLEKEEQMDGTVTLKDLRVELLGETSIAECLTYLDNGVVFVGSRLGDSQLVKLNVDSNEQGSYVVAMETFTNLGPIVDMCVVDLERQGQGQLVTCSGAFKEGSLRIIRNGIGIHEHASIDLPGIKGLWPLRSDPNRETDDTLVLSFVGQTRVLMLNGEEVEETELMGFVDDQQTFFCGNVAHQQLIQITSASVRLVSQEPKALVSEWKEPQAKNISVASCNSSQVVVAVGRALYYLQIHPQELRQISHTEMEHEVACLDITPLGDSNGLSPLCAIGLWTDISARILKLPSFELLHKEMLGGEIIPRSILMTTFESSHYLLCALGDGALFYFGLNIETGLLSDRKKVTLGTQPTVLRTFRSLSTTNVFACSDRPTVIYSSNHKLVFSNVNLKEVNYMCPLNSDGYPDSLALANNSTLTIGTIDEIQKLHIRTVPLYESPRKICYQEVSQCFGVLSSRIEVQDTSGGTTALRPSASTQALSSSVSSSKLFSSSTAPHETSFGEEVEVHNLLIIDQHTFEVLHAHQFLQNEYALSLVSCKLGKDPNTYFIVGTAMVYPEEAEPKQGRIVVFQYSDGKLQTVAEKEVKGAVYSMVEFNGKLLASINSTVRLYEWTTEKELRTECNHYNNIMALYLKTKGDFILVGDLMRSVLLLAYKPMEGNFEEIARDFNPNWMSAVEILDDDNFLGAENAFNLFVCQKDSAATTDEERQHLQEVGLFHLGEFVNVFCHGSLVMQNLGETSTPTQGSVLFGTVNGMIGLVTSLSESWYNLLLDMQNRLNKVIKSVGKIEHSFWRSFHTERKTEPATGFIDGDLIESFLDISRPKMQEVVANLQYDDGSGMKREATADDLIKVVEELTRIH

For `CCOc1cc(-c2ccc(N3CCC(CN4CCN(C(=O)CCCCCCN5CCC(c6ccc7c(c6)C(=O)N(C6CCC(=O)NC6=O)C7)CC5)CC4)(NC(=O)c4cc(F)ccc4F)CC3)nc2)c2c(C#N)cnn2c1` (centres unmarked) [Example 19, N-[1-(5-{3-cyano-6-ethoxypyrazolo[1,5-a]pyridin-4-yl}pyridin-2-yl)-4-{[4-(7-{4-[2-(2,6-dioxopiperidin-3-yl)-3-oxo-2,3-dihydro-1H-isoindol-5-yl]piperidin-1-yl}heptanoyl)piperazin-1-yl]methyl}piperidin-4-yl]-2,5-difluorobenzamide], the Dmax is over 90% and the DC50 is 2 to 10 nM.

On to `CCOc1cc(-c2ccc(N3CCC(Cc4ccccc4)(NC(=O)C4CCN(C(=O)CCN5CCC(c6ccc7c(c6)C(=O)N(C6CCC(=O)NC6=O)C7)CC5)CC4)CC3)nc2)c2c(C#N)cnn2c1` (centres unmarked) [Example 52, N-[4-benzyl-1-[5-(3-cyano-6-ethoxy-pyrazolo[1,5-a]pyridin-4-yl)-2-pyridyl]-4-piperidyl]-1-[3-[4-[2-(2,6-dioxo-3-piperidyl)-3-oxo-isoindolin-5-yl]-1-piperidyl]propanoyl]piperidine-4-carboxamide], for which the Dmax was over 90% and the DC50 fell in the range of 2 to 10 nM.

For the compound `CCOc1cc(-c2ccc(N3CCC(Cc4ccccc4)(NC(=O)N4CCC(CN5CCC(c6ccc7c(c6)C(=O)N(C6CCC(=O)NC6=O)C7)CC5)CC4)CC3)nc2)c2c(C#N)cnn2c1` (centres unmarked) [Example 55], the Dmax lay in the range of 60 to 90% and the DC50 fell in the range of 2 to 10 nM.

With `CCOc1cc(-c2ccc(N3CCC(CN4CCC5(CC4)CCN(C(=O)CCN4CCC(c6ccc7c(c6)CN(C6CCC(=O)NC6=O)C7=O)CC4)CC5)(NC(=O)c4cc(F)ccc4F)CC3)nc2)c2c(C#N)cnn2c1` (centres unmarked) [Example 88, N-[1-(5-{3-cyano-6-ethoxypyrazolo[1,5-a]pyridin-4-yl}pyridin-2-yl)-4-{[9-(3-{4-[2-(2,6-dioxopiperidin-3-yl)-1-oxo-2,3-dihydro-1H-isoindol-5-yl]piperidin-1-yl}propanoyl)-3,9-diazaspiro[5.5]undecan-3-yl]methyl}piperidin-4-yl]-2,5-difluorobenzamide], the Dmax is over 90% and the DC50 was 10 to 100 nM.

For `CCOc1cc(-c2ccc(N3CCC(CN(C(=O)CCCCN4CCN(c5ccc6c(c5)CN(C5CCC(=O)NC5=O)C6=O)CC4)C(C)C)(NC(=O)c4cc(F)ccc4F)CC3)nc2)c2c(C#N)cnn2c1` (centres unmarked) [Example 164, N-[1-(5-{3-cyano-6-ethoxypyrazolo[1,5-a]pyridin-4-yl}pyridin-2-yl)-4-[(5-{4-[2-(2,6-dioxopiperidin-3-yl)-1-oxo-2,3-dihydro-1H-isoindol-5-yl]piperazin-1-yl}-N-(propan-2-yl)pentanamido)methyl]piperidin-4-yl]-2,5-difluorobenzamide], the Dmax was over 90% and the DC50 is 2 to 10 nM.

For the compound `CCOc1cc(-c2ccc(N3CCC(CN(C)C(=O)CCCCN4CCC(c5ccc6c(c5)CN(C5CCC(=O)NC5=O)C6=O)CC4)(NC(=O)c4cc(F)ccc4F)CC3)nc2)c2c(C#N)cnn2c1` (centres unmarked) [Example 139, N-[1-(5-{3-cyano-6-ethoxypyrazolo[1,5-a]pyridin-4-yl}pyridin-2-yl)-4-[(5-{4-[2-(2,6-dioxopiperidin-3-yl)-1-oxo-2,3-dihydro-1H-isoindol-5-yl]piperidin-1-yl}-N-methylpentanamido)methyl]piperidin-4-yl]-2,5-difluorobenzamide], the Dmax was over 90% and the DC50 was in the range of 10 to 100 nM.

Take `CCOc1cc(-c2ccc(N3CCC(CN4CCN(C(=O)CCCCCCCCCCNC(=O)COc5cccc6c5CN(C5CCC(=O)NC5=O)C6=O)CC4)(NC(=O)c4cc(F)ccc4F)CC3)nc2)c2c(C#N)cnn2c1` (centres unmarked) [Example 28, N-[1-(5-{3-cyano-6-ethoxypyrazolo[1,5-a]pyridin-4-yl}pyridin-2-yl)-4-({4-[11-(2-{[2-(2,6-dioxopiperidin-3-yl)-1-oxo-2,3-dihydro-1H-isoindol-4-yl]oxy}acetamido)undecanoyl]piperazin-1-yl}methyl)piperidin-4-yl]-2,5-difluorobenzamide]: the Dmax lay in the range of 60 to 90% and the DC50 fell in the range of 10 to 100 nM.

`CCOc1cc(-c2ccc(N3CCC(CN(C(=O)CCCCN4CCC(c5ccc6c(c5)C(=O)N(C5CCC(=O)NC5=O)C6)CC4)C(C)C)(NC(=O)c4cc(F)ccc4F)CC3)nc2)c2c(C#N)cnn2c1` (centres unmarked) [Example 170, N-[1-(5-{3-cyano-6-ethoxypyrazolo[1,5-a]pyridin-4-yl}pyridin-2-yl)-4-[(5-{4-[2-(2,6-dioxopiperidin-3-yl)-3-oxo-2,3-dihydro-1H-isoindol-5-yl]piperidin-1-yl}-N-(propan-2-yl)pentanamido)methyl]piperidin-4-yl]-2,5-difluorobenzamide]: the Dmax was in the range of 60 to 90% and the DC50 lay within 100 to 2000 nM.

Consider `CCOc1cc(-c2ccc(N3CCC(CN4CC5(C4)CN(C(=O)COc4ccc6c(c4)CN(C4CCC(=O)NC4=O)C6=O)C5)(NC(=O)c4cc(F)ccc4F)CC3)nc2)c2c(C#N)cnn2c1` (centres unmarked) [Example 97, N-[1-(5-{3-cyano-6-ethoxypyrazolo[1,5-a]pyridin-4-yl}pyridin-2-yl)-4-{[6-(2-{[2-(2,6-dioxopiperidin-3-yl)-1-oxo-2,3-dihydro-1H-isoindol-5-yl]oxy}acetyl)-2,6-diazaspiro[3.3]heptan-2-yl]methyl}piperidin-4-yl]-2,5-difluorobenzamide], for which the Dmax was 60 to 90% and the DC50 is 2 to 10 nM.

Take `CCOc1cc(-c2ccc(N3CCC(NC(=O)c4cc(F)ccc4F)(C(=O)NCCN4CCC(c5ccc6c(c5)CN(C5CCC(=O)NC5=O)C6=O)CC4)CC3)nc2)c2c(C#N)cnn2c1` (centres unmarked) [Example 156, 1-(5-{3-cyano-6-ethoxypyrazolo[1,5-a]pyridin-4-yl}pyridin-2-yl)-4-(2,5-difluorobenzamido)-N-(2-{4-[2-(2,6-dioxopiperidin-3-yl)-1-oxo-2,3-dihydro-1H-isoindol-5-yl]piperidin-1-yl}ethyl)piperidine-4-carboxamide]: the Dmax is 60 to 90% and the DC50 fell in the range of 2 to 10 nM.

Turning to `CCOc1cc(-c2ccc(N3CCC(CN(C(=O)CCCCN4CCN(c5ccc6c(c5)C(=O)N(C5CCC(=O)NC5=O)C6)CC4)C(C)C)(NC(=O)c4cc(F)ccc4F)CC3)nc2)c2c(C#N)cnn2c1` (centres unmarked) [Example 168, N-[1-(5-{3-cyano-6-ethoxypyrazolo[1,5-a]pyridin-4-yl}pyridin-2-yl)-4-[(5-{4-[2-(2,6-dioxopiperidin-3-yl)-3-oxo-2,3-dihydro-1H-isoindol-5-yl]piperazin-1-yl}-N-(propan-2-yl)pentanamido)methyl]piperidin-4-yl]-2,5-difluorobenzamide], the Dmax is over 90% and the DC50 fell in the range of 2 to 10 nM.

Take `CCOc1cc(-c2ccc(N3CCC(C)(CN4CCN(C(=O)CCN5CCC(c6ccc7c(c6)C(=O)N(C6CCC(=O)NC6=O)C7)CC5)CC4)CC3)nc2)c2c(C#N)cnn2c1` (centres unmarked) [Example 147, 4-[6-(4-{[4-(3-{4-[2-(2,6-dioxopiperidin-3-yl)-3-oxo-2,3-dihydro-1H-isoindol-5-yl]piperidin-1-yl}propanoyl)piperazin-1-yl]methyl}-4-methylpiperidin-1-yl)pyridin-3-yl]-6-ethoxypyrazolo[1,5-a]pyridine-3-carbonitrile]: the Dmax was 60 to 90% and the DC50 lay within 10 to 100 nM.

With `CCOc1cc(-c2ccc(N3CCC(NC(=O)c4cc(F)ccc4F)(C(=O)NCCN4CCN(c5ccc6c(c5)C(=O)N(C5CCC(=O)NC5=O)C6)CC4)CC3)nc2)c2c(C#N)cnn2c1` (centres unmarked) [Example 158, 1-(5-{3-cyano-6-ethoxypyrazolo[1,5-a]pyridin-4-yl}pyridin-2-yl)-4-(2,5-difluorobenzamido)-N-(2-{4-[2-(2,6-dioxopiperidin-3-yl)-3-oxo-2,3-dihydro-1H-isoindol-5-yl]piperazin-1-yl}ethyl)piperidine-4-carboxamide], the Dmax fell in the range of 60 to 90% and the DC50 is under 2 nM.

For `CCOc1cc(-c2ccc(N3CCC(NC(=O)c4cc(F)ccc4F)(C(=O)NCCCCCCNc4cccc5c(N6CCC(=O)NC6=O)nn(C)c45)CC3)nc2)c2c(C#N)cnn2c1` [Example 149, 1-(5-{3-cyano-6-ethoxypyrazolo[1,5-a]pyridin-4-yl}pyridin-2-yl)-4-(2,5-difluorobenzamido)-N-(6-{[3-(2,4-dioxo-1,3-diazinan-1-yl)-1-methyl-1H-indazol-7-yl]amino}hexyl)piperidine-4-carboxamide], the Dmax is over 90% and the DC50 is under 2 nM.

On to `CCOc1cc(-c2ccc(N3CCC(CN4CCC5(CC4)CCN(C(=O)Cc4ccc6c(c4)CN(C4CCC(=O)NC4=O)C6=O)CC5)(NC(=O)c4cc(F)ccc4F)CC3)nc2)c2c(C#N)cnn2c1` (centres unmarked) [Example 98, N-[1-(5-{3-cyano-6-ethoxypyrazolo[1,5-a]pyridin-4-yl}pyridin-2-yl)-4-[(9-{2-[2-(2,6-dioxopiperidin-3-yl)-1-oxo-2,3-dihydro-1H-isoindol-5-yl]acetyl}-3,9-diazaspiro[5.5]undecan-3-yl)methyl]piperidin-4-yl]-2,5-difluorobenzamide], for which the Dmax is over 90% and the DC50 is 2 to 10 nM.

For `CCOc1cc(-c2ccc(N3CCC(CN4CCN(CC5CCN(C(=O)COc6ccc7c(c6)CN(C6CCC(=O)NC6=O)C7=O)CC5)CC4)(NC(=O)c4cc(F)ccc4F)CC3)nc2)c2c(C#N)cnn2c1` (centres unmarked) [Example 114, N-[1-(5-{3-cyano-6-ethoxypyrazolo[1,5-a]pyridin-4-yl}pyridin-2-yl)-4-[(4-{[1-(2-{[2-(2,6-dioxopiperidin-3-yl)-1-oxo-2,3-dihydro-1H-isoindol-5-yl]oxy}acetyl)piperidin-4-yl]methyl}piperazin-1-yl)methyl]piperidin-4-yl]-2,5-difluorobenzamide], the Dmax was in the range of 60 to 90% and the DC50 was under 2 nM.
